Reference: US8835507B2, “Adamantane derivatives possessing anti-viral and anti-microbial activity” (priority 2012, dated 2014)
Values after ≈ are worked out from the molar mass of the structure shown. Read-outs that look alike come from different tables or passages of the source.

Legend:
[1] = test system: Vaccinia virus, WR strain; details: for TC50: toxic concentration in the Vaccinia virus screen; for activity against vaccinia virus (in words): summary of Table 1
[2] = test system: plague; assay: organism not typed; type: cell-based
[3] = test system: B. pseudomallei (ATCC 23342); assay: microbe, parasite or virus in culture; type: cell-based; details: Burkholderia pseudomallei, ATCC23342
[4] = test system: Y. pestis (CO92); assay: microbe, parasite or virus in culture; type: cell-based; details: Yersinia pestis
[5] = test system: P. aeruginosa (ATCC 27853); assay: Test C: MIC against P. aeruginosa (ATCC 27853); type: cell-based; details: Pseudomonas aeruginosa, ATCC27853, P. aeruginosa (ATCC 27853)
[6] = test system: Tacaribe virus
[7] = test system: S. aureus (ATCC 29213); assay: Test C: MIC against S. aureus (ATCC 29213); type: cell-based; details: Staphylococcus aureus, ATCC29213, CAMHB + IV
[8] = test system: B. anthracis (Ames); assay: microbe, parasite or virus in culture; type: cell-based; details: Bacillus anthracis
[9] = test system: Vaccinia virus, WR strain; assay: microbe, parasite or virus in culture; details: Orthopoxvirus vaccinia
[10] = test system: anthrax; assay: organism not typed; type: cell-based
[11] = test system: F. tularensis (SCHU4); assay: microbe, parasite or virus in culture; type: cell-based; details: Francisella tularensis
[12] = test system: B. mallei (ATCC 23344); assay: microbe, parasite or virus in culture; type: cell-based; details: Burkholderia mallei, ATCC23344
[13] = test system: Pichinde virus
[14] = test system: E. coli; assay: microbe, parasite or virus in culture; type: cell-based; details: Escherichia coli
[15] = test system: E. coli (ATCC 25922); assay: Test C: MIC against E. coli (ATCC 25922); type: cell-based

| SMILES | Comments (activity rating) ([1]; Vaccinia virus, WR strain) | TC50 [1] [µg/mL] | MIC [2] [µg/mL] | MIC [3] [µg/mL] | MIC [4] [µg/mL] | MIC ([5]; CAMHB) [µg/mL] | MIC ([5]; CAMHB + IV) [µg/mL] | IC50 [6] [µg/mL] | MIC [7] [µg/mL] | MIC [8] [µg/mL] | IC50 [9] [µg/mL] | activity against vaccinia virus (in words) [1] | MIC [10] [µg/mL] | MIC [11] [µg/mL] | MIC [12] [µg/mL] | IC50 [13] [µg/mL] | MIC [14] [µg/mL] | MIC ([15]; CAMHB + IV) | MIC ([15]; Escherichia coli, ATCC25922, CAMHB, read-out: MIC) [µg/mL] | IC50 ([1]; Vaccinia virus, WR strain) [µg/mL] |
| --- | --- | --- | --- | --- | --- | --- | --- | --- | --- | --- | --- | --- | --- | --- | --- | --- | --- | --- | --- | --- |
| Nc1ccn(C[C@@H](CO)OCP(=O)(O)O)c(=O)n1 [Cidofir, reference compound] | Inactive | >100 | – | – | – | – | – | – | – | – | – | – | – | – | – | – | – | – | – | – |
| C(CNC12CC3CC(CC(C3)C1)C2)NC12CC3CC(CC(C3)C1)C2 [Compound 6] | Active | 5.58 (≈ 17 µM) | 4 (≈ 12.2 µM) | 2 (≈ 6.09 µM) | ≤ 0.06 | 2 (≈ 6.09 µM) | 4 | 6 (≈ 18.3 µM) | 1 | 0.25 (≈ 0.761 µM) | 0.32 (≈ 0.974 µM) | moderate to high activity | 1 to 4 (≈ 3.04 to 12.2 µM) | ≤ 0.06 | 2 (≈ 6.09 µM) | 11 (≈ 33.5 µM) | 4 to 8 (≈ 12.2 to 24.3 µM) | ≦0.06 ug/ml | ≤ 0.06 | – |
| ClN(CCN(Cl)C12CC3CC(CC(C3)C1)C2)C12CC3CC(CC(C3)C1)C2 [Compound 7] | Moderate | 63.40 (≈ 160 µM) | – | – | – | – | – | 17 (≈ 42.8 µM) | – | – | 6.37 (≈ 16 µM) | moderate to high activity | – | – | – | 3.4 (≈ 8.55 µM) | – | – | – | – |
| NC(=O)c1ncn([C@@H]2O[C@H](CO)[C@@H](O)[C@H]2O)n1 [Ribivirin, reference compound] | Moderate | >100 | – | – | – | – | – | – | – | – | – | – | – | – | – | – | – | – | – | 27.90 (≈ 114 µM) |
